The numbers were not newly measured in patent publication USRE45822E1, “Oral dosage form comprising a therapeutic agent and an adverse-effect agent” (Purdue Pharma L.P., priority 2001, dated 2015), which cites them from elsewhere.

For this series the following is noted: administered orally; retain much of their efficacy.

`C[C@H]1[C@H]2Cc3ccc(O)cc3[C@]1(C)CCN2CC1CC1` [cyclazocine]: the duration of action was about 24 h.

With `O=C1CC[C@@]2(O)[C@H]3Cc4ccc(O)c5c4[C@@]2(CCN3CC2CC2)[C@H]1O5` [naltrexone], the duration of action is about 24 h.
